Assay results taken from patent US20240343727A1, “PYRIDAZINONE OR PYRIDINONE COMPOUNDS, PREPARATION METHODS AND USES THEREOF” (InventisBio Co., Ltd., priority 2021, published 2024).

Each molecule was assayed against T1, PARP7 (Homo sapiens, UniProt Q7Z3E1) (assay: PARP7 TR-FRET assay (binding, displacement of biotinylated Probe A)). Conditions: 6 nM PARP7, 2 nM Probe A, 25° C., 30 min.
T1 sequence (Q7Z3E1 1-657): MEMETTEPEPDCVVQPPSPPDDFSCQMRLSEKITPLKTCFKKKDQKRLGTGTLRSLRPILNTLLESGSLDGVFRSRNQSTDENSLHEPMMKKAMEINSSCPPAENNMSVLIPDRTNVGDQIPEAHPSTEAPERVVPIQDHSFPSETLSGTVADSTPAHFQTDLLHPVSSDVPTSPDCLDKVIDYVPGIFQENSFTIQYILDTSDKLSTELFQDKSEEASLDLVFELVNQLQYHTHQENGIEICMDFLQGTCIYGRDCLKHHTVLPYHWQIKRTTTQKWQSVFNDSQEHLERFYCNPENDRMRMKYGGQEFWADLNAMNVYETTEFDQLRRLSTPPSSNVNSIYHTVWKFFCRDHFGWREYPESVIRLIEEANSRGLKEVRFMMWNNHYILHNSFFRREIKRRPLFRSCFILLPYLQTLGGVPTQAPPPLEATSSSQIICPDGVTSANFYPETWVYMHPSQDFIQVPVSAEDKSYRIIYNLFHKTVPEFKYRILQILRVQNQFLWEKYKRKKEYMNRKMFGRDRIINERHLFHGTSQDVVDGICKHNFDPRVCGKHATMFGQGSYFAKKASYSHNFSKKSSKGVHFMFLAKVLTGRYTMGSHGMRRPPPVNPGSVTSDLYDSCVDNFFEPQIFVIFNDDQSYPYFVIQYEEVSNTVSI
Experimental: Biological Assay Example A: PARP7 TR-FRET Assay
A time-resolved fluorescence energy transfer (TR-FRET) assay was used to test binding activity of compounds to PARP7. Two microliter test compound was added in 384-well plate. Reactions were performed in a 6 uL volume by adding 4 uL mixture of PARP7 and Probe A (a biotinylated probe binding to the PARP7: N-(6-(2-(4-((2-(6-oxo-5-(trifluoromethyl)-1,6-dihydropyridazin-4-yl) isoindolin-5-yl) oxy) piperidin-1-yl) acetamido) hexyl)-5-((3aS,4S,6aR)-2-oxohexahydro-1H-thieno [3,4-d]imidazol-4-yl) pentanamide, made as reported in WO2019212937A1) in assay buffer (20 mM HEPES pH 8.0, 100 mM NaCl, 0.1% BSA, 2 mM DTT and 0.002% Tween20). The final concentration of PARP7 and Probe A were 6 nM and 2 nM, incubating with test compounds at 25° C. for 30 min. Four microliter ULight-anti 6xHis and LANCE Eu-W1024 labeled streptavidin (PerkinElmer) were added with the final concentration of ULight-anti 6xHis and LANCE Eu-W1024 at 4 nM and 0.25 nM. The reaction mixture was incubated at 25° C. for 30 min. The plate was read on a Tecan Spark plate reader (excitation wavelength at 320 nm, emission wavelength at 615 nm and 665 nm with a 90 us delay. The ratio of the 665/615 nm emission was calculated for each well to the amount of complex of PARP7 and Probe A in each well was calculated. The 0.25% DMSO vehicle was used as control and no PARP7 well was as blank well. Inhibition rate is calculated with the formula of % inhibition=100-100*(TRFcmpd-TRFblank)/(TRFcontrol−TRFblank). Inhibition IC50 is calculated with the equation of Y=Bottom+ (Top-Bottom)/(1+10^((LogIC50−X) *Hill Slope))

Compound | IC50
O=C(CO[C@H]1CCNc2c1n[nH]c(=O)c2C(F)(F)F)N1CCN(c2ncc(C(F)(F)F)cn2)CC1 (single isomer, unassigned) [Compound 3] | 100 to 1000 nM
CN1CC[C@@H](OCC(=O)N2CCN(c3ncc(C(F)(F)F)cn3)CC2)c2n[nH]c(=O)c(C(F)(F)F)c21 (single isomer, unassigned) [Compound 4] | < 100 nM
O=C(CCO[C@H]1CCNc2c1n[nH]c(=O)c2C(F)(F)F)N1CCN(c2ncc(C(F)(F)F)cn2)CC1 (single isomer, unassigned) [Compound 7] | 100 to 1000 nM
O=C(COC1CCOc2c1n[nH]c(=O)c2C(F)(F)F)N1CCN(c2ncc(C(F)(F)F)cn2)CC1 (single isomer, unassigned) [Compound 10] | < 100 nM
O=C(COC1CCOc2c1n[nH]c(=O)c2C(F)(F)F)N1CCN(c2ncc(C(F)(F)F)cn2)CC1 (single isomer, unassigned) [Compound 11] | > 1000 nM
CN1C[C@H](OCC(=O)N2CCN(c3ncc(C(F)(F)F)cn3)CC2)c2n[nH]c(=O)c3cc(F)cc1c23 (single isomer, unassigned) [Compound 13] | 100 to 1000 nM
C#Cc1cc(N2CCOC(CC(=O)N3CCN(c4ncc(C(F)(F)F)cn4)CC3)C2)n[nH]c1=O (single isomer, unassigned) [Compound 45] | 100 to 1000 nM
O=C(CC1CN(c2n[nH]c(=O)c3cc(F)ccc23)CCO1)N1CCN(c2ncc(C(F)(F)F)cn2)CC1 (single isomer, unassigned) [Compound 49] | 100 to 1000 nM
O=C(CC1CN(c2cc(C(F)(F)F)c(=O)[nH]n2)CCC1(F)F)N1CCN(c2ncc(C(F)(F)F)cn2)CC1 (single isomer, unassigned) [Compound 80] | < 100 nM
O=C(OC1CN(c2cc(C(F)(F)F)c(=O)[nH]n2)CCC1(F)F)N1CCN(c2ncc(C(F)(F)F)cn2)CC1 (single isomer, unassigned) [Compound 81] | < 100 nM
O=C(CC1CN(c2n[nH]c(=O)c3ccc(Cl)cc23)CCO1)N1CCN(c2ncc(C(F)(F)F)cn2)CC1 (single isomer, unassigned) [Compound 100] | < 100 nM
O=C(CC1CN(c2n[nH]c(=O)c3ccc(C4CC4)cc23)CCO1)N1CCN(c2ncc(C(F)(F)F)cn2)CC1 (single isomer, unassigned) [Compound 105] | 100 to 1000 nM
Cc1cccc2c(N3CCOC(CC(=O)N4CCN(c5ncc(C(F)(F)F)cn5)CC4)C3)n[nH]c(=O)c12 (single isomer, unassigned) [Compound 106] | 100 to 1000 nM
O=C(CC1CN(c2n[nH]c(=O)c3ccccc23)CCO1)N1CCN(c2ncc(C(F)(F)F)cn2)CC1 (single isomer, unassigned) [Compound 107] | 100 to 1000 nM
O=C(CC1CN(c2cc(C(F)(F)F)c(=O)[nH]n2)CCC1(F)F)N1CCN(c2ncc(C(F)(F)F)cn2)CC1 (single isomer, unassigned) [Compound 108] | < 100 nM
O=C(CC1CN(c2n[nH]c(=O)c3c(F)cccc23)CCO1)N1CCN(c2ncc(C(F)(F)F)cn2)CC1 (single isomer, unassigned) [Compound 109] | < 100 nM
C#Cc1c(C)c(N2CCOC(CC(=O)N3CCN(c4ncc(C(F)(F)F)cn4)CC3)C2)n[nH]c1=O (single isomer, unassigned) [Compound 113] | 100 to 1000 nM
O=C(CC1CN(c2n[nH]c(=O)c3ncccc23)CCO1)N1CCN(c2ncc(C(F)(F)F)cn2)CC1 (single isomer, unassigned) [Compound 125] | < 100 nM
O=C(CC1CN(c2n[nH]c(=O)c3ncccc23)CCO1)N1CCN(c2ncc(C(F)(F)F)cn2)CC1 (single isomer, unassigned) [Compound 126] | > 1000 nM
O=C(COC1CCOc2c1n[nH]c(=O)c2C1CC1)N1CCN(c2ncc(C(F)(F)F)cn2)CC1 (single isomer, unassigned) [Compound 128] | < 100 nM

Other lines, results leading:

IC50 | Compound
100 to 1000 nM | CN1CC[C@H](OCC(=O)N2CCN(c3ncc(C(F)(F)F)cn3)CC2)c2n[nH]c(=O)c(C(F)(F)F)c21 (single isomer, unassigned) [Compound 5]
< 100 nM | O=C(CCO[C@@H]1CCNc2c1n[nH]c(=O)c2C(F)(F)F)N1CCN(c2ncc(C(F)(F)F)cn2)CC1 (single isomer, unassigned) [Compound 6]
> 1000 nM | O=C(COC1CCOc2c1n[nH]c(=O)c2Br)N1CCN(c2ncc(C(F)(F)F)cn2)CC1 (single isomer, unassigned) [Compound 9]
< 100 nM | O=C(CC1CN(c2cc(C(F)(F)F)c(=O)[nH]n2)CCO1)N1CCN(c2ncc(C(F)(F)F)cn2)CC1 (single isomer, unassigned) [Compound 31]
< 100 nM | Cc1c(N2CCOC(CC(=O)N3CCN(c4ncc(C(F)(F)F)cn4)CC3)C2)n[nH]c(=O)c1C(F)(F)F (single isomer, unassigned) [Compound 38]
100 to 1000 nM | C#Cc1cc(N2CCOC(CC(=O)N3CCN(c4ncc(C(F)(F)F)cn4)CC3)C2)n[nH]c1=O (single isomer, unassigned) [Compound 44]
100 to 1000 nM | O=C(CC1CN(c2n[nH]c(=O)c3ccc(F)cc23)CCO1)N1CCN(c2ncc(C(F)(F)F)cn2)CC1 (single isomer, unassigned) [Compound 51]
< 100 nM | O=C(CC1CN(c2n[nH]c(=O)c3ccc(F)cc23)CCO1)N1CCN(c2ncc(C(F)(F)F)cn2)CC1 (single isomer, unassigned) [Compound 52]
< 100 nM | O=C(COC1CCOc2c1n[nH]c(=O)c2C(F)F)N1CCN(c2ncc(C(F)(F)F)cn2)CC1 (single isomer, unassigned) [Compound 55]
< 100 nM | C#Cc1c(C)c(N2CCOC(CC(=O)N3CCN(c4ncc(C(F)(F)F)cn4)CC3)C2)n[nH]c1=O (single isomer, unassigned) [Compound 89]
< 100 nM | O=C(CC1CN(c2n[nH]c(=O)c3c(Cl)cccc23)CCO1)N1CCN(c2ncc(C(F)(F)F)cn2)CC1 (single isomer, unassigned) [Compound 93]
< 100 nM | O=C(CC1CN(c2n[nH]c(=O)c3c(F)cccc23)CCO1)N1CCN(c2ncc(C(F)(F)F)cn2)CC1 (single isomer, unassigned) [Compound 94]
< 100 nM | O=C(CC1CN(c2n[nH]c(=O)c3c(Cl)cccc23)CCO1)N1CCN(c2ncc(C(F)(F)F)cn2)CC1 (single isomer, unassigned) [Compound 98]
< 100 nM | O=C(CC1CN(c2n[nH]c(=O)c3cc(Cl)ccc23)CCO1)N1CCN(c2ncc(C(F)(F)F)cn2)CC1 (single isomer, unassigned) [Compound 99]
< 100 nM | Cc1ccc2c(=O)[nH]nc(N3CCOC(CC(=O)N4CCN(c5ncc(C(F)(F)F)cn5)CC4)C3)c2c1 (single isomer, unassigned) [Compound 102]
< 100 nM | O=C(CC1CN(c2n[nH]c(=O)c3ccc(C4CC4)cc23)CCO1)N1CCN(c2ncc(C(F)(F)F)cn2)CC1 (single isomer, unassigned) [Compound 103]
< 100 nM | O=C(CC1CN(c2n[nH]c(=O)c3cccnc23)CCO1)N1CCN(c2ncc(C(F)(F)F)cn2)CC1 (single isomer, unassigned) [Compound 104]
> 1000 nM | O=C(OC1CN(c2cc(C(F)(F)F)c(=O)[nH]n2)CCC1(F)F)N1CCN(c2ncc(C(F)(F)F)cn2)CC1 (single isomer, unassigned) [Compound 117]
100 to 1000 nM | O=C(CC1CN(c2n[nH]c(=O)c3cc(Cl)ccc23)CCO1)N1CCN(c2ncc(C(F)(F)F)cn2)CC1 (single isomer, unassigned) [Compound 121]
100 to 1000 nM | O=C(CC1CN(c2n[nH]c(=O)c3ccc(Cl)cc23)CCO1)N1CCN(c2ncc(C(F)(F)F)cn2)CC1 (single isomer, unassigned) [Compound 122]
> 1000 nM | O=C(CC1CN(c2n[nH]c(=O)c3cccnc23)CCO1)N1CCN(c2ncc(C(F)(F)F)cn2)CC1 (single isomer, unassigned) [Compound 124]
